Results: the supplement of paper PMC10307832

Tests used:
Assay in all cases: relative viability (nuclei count vs DMSO), 5 days (fraction); higher = more cells survive
Crizotinib + Phenformin = compound: C[C@@H](Oc1cc(-c2cnn(C3CCNCC3)c2)cnc1N)c1c(Cl)ccc(F)c1Cl [Crizotinib] + N=C(N)NC(=N)NCCc1ccccc1 [Phenformin] (partner 250 µM)
How it was run: (§1)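 Five library-drug doses in √10 steps were combined with a fixed anchor-drug dose, or a single drug was given alone, by pin tool to lung cancer cell lines in 1536-well plates the day after seeding. Nuclei were stained and counted after 5 days. Relative viability is the nuclei count in treated wells over that in vehicle wells, taken as the median of duplicate plates.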

Crizotinib + Foretinib = compound: C[C@@H](Oc1cc(-c2cnn(C3CCNCC3)c2)cnc1N)c1c(Cl)ccc(F)c1Cl [Crizotinib] + COc1cc2c(Oc3ccc(NC(=O)C4(C(=O)Nc5ccc(F)cc5)CC4)cc3F)ccnc2cc1OCCCN1CCOCC1 [Foretinib] (partner 0.25 µM)
How it was run: as §1

Crizotinib + Olaparib = compound: C[C@@H](Oc1cc(-c2cnn(C3CCNCC3)c2)cnc1N)c1c(Cl)ccc(F)c1Cl [Crizotinib] + O=C(c1cc(Cc2n[nH]c(=O)c3ccccc23)ccc1F)N1CCN(C(=O)C2CC2)CC1 [Olaparib] (partner 8 µM)
How it was run: as §1

Crizotinib + Decitabine = compound: C[C@@H](Oc1cc(-c2cnn(C3CCNCC3)c2)cnc1N)c1c(Cl)ccc(F)c1Cl [Crizotinib] + Nc1ncn([C@H]2C[C@H](O)[C@@H](CO)O2)c(=O)n1 [Decitabine] (partner 2 µM)
How it was run: as §1

Cell Line	relative viability (Crizotinib + Phenformin; first compound 0.01 µM)	relative viability (Crizotinib + Phenformin; first compound 0.03162 µM)	relative viability (Crizotinib + Phenformin; first compound 0.1 µM)	relative viability (Crizotinib + Phenformin; first compound 0.3162 µM)	relative viability (Crizotinib + Phenformin; first compound 1 µM)	relative viability (Crizotinib + Foretinib; first compound 0.01 µM)	relative viability (Crizotinib + Foretinib; first compound 0.03162 µM)	relative viability (Crizotinib + Foretinib; first compound 0.1 µM)	relative viability (Crizotinib + Foretinib; first compound 0.3162 µM)	relative viability (Crizotinib + Foretinib; first compound 1 µM)	relative viability (Crizotinib + Olaparib; first compound 0.01 µM)	relative viability (Crizotinib + Olaparib; first compound 0.03162 µM)	relative viability (Crizotinib + Olaparib; first compound 0.1 µM)	relative viability (Crizotinib + Olaparib; first compound 0.3162 µM)	relative viability (Crizotinib + Olaparib; first compound 1 µM)	relative viability (Crizotinib + Decitabine; first compound 0.01 µM)	relative viability (Crizotinib + Decitabine; first compound 0.03162 µM)	relative viability (Crizotinib + Decitabine; first compound 0.1 µM)	relative viability (Crizotinib + Decitabine; first compound 0.3162 µM)	relative viability (Crizotinib + Decitabine; first compound 1 µM)
201T	0.42	0.48	0.455	0.445	0.726	0.982	1.12	1.09	1.13	1.14	0.776	0.83	0.892	0.846	0.861	0.803	0.848	0.871	0.845	0.893
A549	0.165	0.136	0.167	0.141	0.172	0.919	1.05	0.908	0.853	1.02	0.38	0.259	0.362		0.456	0.213	0.216	0.324	0.16	0.257
A-427	0.303	0.349	0.419		0.28	0.943	1.04	1.04		1.04	0.745	0.777	0.783		0.623	0.54	0.561	0.526		0.593
ABC-1		0.22	0.211	0.238	0.269		1.02	1.05	1.31	1.09		1.11	0.823		0.63	1.09		1.02		1.15
BEN	0.259	0.253	0.256	0.235	0.257	0.866	0.732	0.644	0.332	0.633	1.04	1.06	0.924	0.974	1.15	0.687	0.61	0.761	0.632	0.647
CAL-12T	0.503	0.609	0.606		0.558	1.11	1.17			1.24	0.811	0.794	0.743	0.709	0.723					
COR-L23	0.376	0.409	0.426	0.389	0.428	0.862	1	0.89	1.06	1.07	0.298	0.343	0.372	0.366	0.382	0.346	0.463	0.454	0.386	0.392
COR-L 105	0.384	0.516	0.406	0.431	0.492	1.07	1.02	1.12	0.797	1.15	0.661	0.689	0.757	0.584	0.7	0.583	0.675	0.658	0.629	0.713
Calu-6						0.855	0.938	0.86	0.947	0.927	0.606	0.571	0.522	0.624	0.549					
ChaGo-K-1	0.457	0.511	0.486	0.329	0.457	0.838		0.939		0.939	0.422	0.413	0.418	0.297	0.444	0.485	0.488	0.528	0.463	0.536
EBC-1						0.0852	0.1	0.107	0.112	0.104	0.563	0.664	0.643	0.182	0.154					
EKVX	0.209	0.241	0.238	0.187	0.221	0.772	0.752	0.717	0.444	0.991	0.754	0.922	0.866	0.777	0.793	0.29	0.339	0.323	0.336	0.337
EMC-BAC-2	0.532	0.544	0.569	0.253	0.473	0.984	0.952	1.02	1.04	1.07	0.501	0.489	0.499		0.474	0.96	0.921	1.01		0.967
EPLC-272H	0.261	0.283	0.302	0.29	0.39	0.669	0.627	0.669	0.636	0.679	0.624	0.729	0.805	0.974	0.837	0.339	0.375	0.366		0.436
H3255	0.348	0.424	0.385	0.327	0.334	0.849	0.866	1.11	0.581	0.877	0.565	0.56	0.575	0.518	0.627	0.701	0.576	0.616	0.558	0.653
HARA	0.468	0.501	0.462		0.47	0.924	0.705	0.858		0.877	0.876	0.929	0.957	0.793	0.635	0.489	0.524	0.514	0.4	0.531
HCC-15	0.444	0.475	0.479		0.42	1.07	1	1.03		0.987	0.724	0.648	0.712	0.76	0.772	0.663	0.71	0.657	0.527	0.599
HCC-44	0.225	0.263	0.264	0.173	0.13						0.923	1.04	1.05	0.955	1	0.959	0.943		0.844	0.915
HCC-78		0.682	0.772	0.598	0.465		0.685	0.566	0.592	0.599	0.737	0.646	0.705	0.681	0.837	0.754	0.759	0.669	0.593	0.661
HCC-366	0.597	0.609	0.65		0.695	0.913	0.841	0.893		0.95	0.357	0.357	0.329		0.356	0.31	0.294	0.406		0.36

Cell Line	relative viability (Crizotinib + Phenformin; first compound 0.01 µM)	relative viability (Crizotinib + Phenformin; first compound 0.03162 µM)	relative viability (Crizotinib + Phenformin; first compound 0.1 µM)	relative viability (Crizotinib + Phenformin; first compound 0.3162 µM)	relative viability (Crizotinib + Phenformin; first compound 1 µM)	relative viability (Crizotinib + Foretinib; first compound 0.01 µM)	relative viability (Crizotinib + Foretinib; first compound 0.03162 µM)	relative viability (Crizotinib + Foretinib; first compound 0.1 µM)	relative viability (Crizotinib + Foretinib; first compound 0.3162 µM)	relative viability (Crizotinib + Foretinib; first compound 1 µM)	relative viability (Crizotinib + Olaparib; first compound 0.01 µM)	relative viability (Crizotinib + Olaparib; first compound 0.03162 µM)	relative viability (Crizotinib + Olaparib; first compound 0.1 µM)	relative viability (Crizotinib + Olaparib; first compound 0.3162 µM)	relative viability (Crizotinib + Olaparib; first compound 1 µM)	relative viability (Crizotinib + Decitabine; first compound 0.01 µM)	relative viability (Crizotinib + Decitabine; first compound 0.03162 µM)	relative viability (Crizotinib + Decitabine; first compound 0.1 µM)	relative viability (Crizotinib + Decitabine; first compound 0.3162 µM)	relative viability (Crizotinib + Decitabine; first compound 1 µM)
HCC-827	0.359	0.397	0.412	0.346	0.397	0.959	0.967	0.937	0.971	1.05	0.618	0.58	0.637	0.517	0.655	0.333	0.241	0.328	0.306	0.321
HOP-62	0.7	0.625	0.731	0.556	0.714	1.09	1.09	1.07	1.07	1.17	0.38	0.415	0.479	0.316	0.504	0.174	0.22	0.23	0.197	0.202
IA-LM						1.07	1.05	1.18	1.21	1.1	0.797	0.844	0.821	0.691	0.73					
LC-2-ad	0.572	0.6	0.544	0.463	0.544	0.839	0.994		0.884	0.877	0.806	0.689	0.712		0.751	0.846	0.896	0.809		0.81
LCLC-97TM1	0.472	0.468	0.508	0.454	0.441	0.83			0.959	0.801	0.308	0.32	0.353	0.384	0.428	0.214	0.235	0.212	0.248	0.303
LCLC-103H	0.348	0.313	0.337	0.328	0.294	0.75	0.732	0.727	0.865	0.711	0.824	0.766	0.794	0.816	0.749	0.672	0.759	0.737	0.754	0.723
LK-2	0.583	0.37	0.221		0.325	1.19	1.42	1.2		1.27	0.678	0.638	0.87	0.461	0.753	0.293	0.22	0.289	0.236	0.284
LOU-NH91	0.684	0.756	0.788	0.706	0.683	0.917	0.949	0.995	0.921	0.98	0.917	0.876	0.925	0.848	0.912	0.832	0.832	0.846	0.759	0.759
LU99A	0.761	0.857	0.786	0.769	1	0.74	0.781	0.812	0.788	0.766	0.246	0.258	0.272	0.236	0.266	0.823	0.803	0.872	0.784	
LXF-289	0.494	0.512	0.54	0.406	0.557	0.864	1	1.01	0.914	0.954	0.994	1.12	1.15	0.993	1.11	0.325	0.394	0.402	0.344	0.398
NCI-H23	0.743	0.855	0.783		0.795	0.998	0.905	1.01		0.936	0.317	0.271	0.317		0.388	0.296	0.272	0.331		0.308
NCI-H322M	0.627	0.821	0.799	0.579	0.797	0.852	1.04	0.947	1.09	0.889		0.839	0.746	0.658	0.777		0.713	0.687	0.721	0.713
NCI-H522	0.702	0.612	0.527	0.768	0.649						0.658	0.585	0.736	0.747	0.604	0.649	0.709	0.762	0.657	0.658
NCI-H1299						1.03	1.07	1.04	1.08	1.06	0.95	0.95	0.92	0.947	0.975					
NCI-H1563	0.607	0.681	0.655	0.637	0.682	0.93		0.888	0.904	1.05										
NCI-H1623	0.557	0.499	0.611	0.608	0.551	0.736	0.92	0.829	0.873	0.801										
NCI-H1648												0.981	0.861	1.27	0.77		0.498	0.401	0.488	0.452
NCI-H1703						0.362	0.295	0.358	0.398	0.331	0.389	0.757	0.528	0.414	0.463					
NCI-H1792		0.357	0.314		0.328						0.505	0.458	0.378		0.37	0.563	0.51	0.523		0.514
NCI-H2228	0.23	0.241	0.29	0.172	0.164	0.872	0.997	0.699	0.81	0.434	0.539	0.595	0.624	0.716	0.668					
